Data taken from PMC10298530, “Synthesis and Anticancer Activity of A-Ring-Modified Derivatives of Dihydrobetulin” (International Journal of Molecular Sciences, 2023).

Legend:
HCT116 = experiment: MTT cell viability assay, HCT116; format: cell-based, human; settings: Homo sapiens, HCT-116; Table S1, HCT116; read-out: IC50 (mean ± SD)
Source text: (§1) Blokhin National Medical Research Center of Oncology (the Ministry of Health of the Russian Federation, Moscow).

HBL-100 = experiment: MTT cell viability assay, HBL-100; format: cell-based, human; settings: Homo sapiens; Table S1, HBL-100; read-out: IC50 (mean ± SD)
Method: (§2) The cells were cultured in a humidified CO2 incubator (model 460-CE; Thermo Fisher Scientific, Waltham, MA, USA) at +37 °C and 5% CO2.
(§3) The percentage of the viable cells was calculated according to the following equation: cell viability (%) = 100 × (mean absorbance in the treatment group/mean absorbance in the control group). The results were expressed pictorially using Prism 6.0 (GraphPad Software, Boston, MA, USA).

HEK293 = experiment: MTT cell viability assay, HEK293; format: cell-based; settings: Homo sapiens; Table S1, HEK293; read-out: IC50 (mean ± SD)
Source text: as §1

MS = experiment: MTT cell viability assay, MS; format: cell-based, human; settings: Homo sapiens; Table S1, MS; read-out: IC50 (mean ± SD);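 also: MS is a melanocyte cell line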
Source text: as §1

PC-3 = experiment: MTT cell viability assay, PC-3; format: cell-based, human; settings: Homo sapiens; Table S1, PC-3; read-out: IC50 (mean ± SD)
Source text: as §1

RD TE32 = experiment: MTT cell viability assay, RD TE32; format: cell-based, human; settings: Homo sapiens; Table S1, RD TE32; read-out: IC50 (mean ± SD)
Source text: as §1

A549 = experiment: MTT cell viability assay, A549; format: cell-based, human; settings: Homo sapiens; Table S1, A549; read-out: IC50 (mean ± SD)
Source text: as §1

HBL-100/Dox = experiment: MTT cell viability assay, HBL-100/Dox; format: cell-based, human; settings: Homo sapiens, HBL-100; read-out: IC50 (mean ± SD)
Method: as §2, §3

MCF-7 = experiment: MTT cell viability assay, MCF-7; format: cell-based, human; settings: Homo sapiens, MCF7; Table S1, MCF-7; read-out: IC50 (mean ± SD)
Source text: as §1

HEpG2 = experiment: MTT cell viability assay, HEpG2; format: cell-based, human; settings: Homo sapiens; Table S1, HEpG2; read-out: IC50 (mean ± SD)
Source text: as §1

SMILES	IC50 (HCT116) [µM]	IC50 (HBL-100) [µM]	IC50 (HEK293) [µM]	IC50 (MS) [µM]	IC50 (PC-3) [µM]	melting point [°C]	IC50 (RD TE32) [µM]	IC50 (A549) [µM]	IC50 (HBL-100/Dox) [µM]	IC50 (MCF-7) [µM]	IC50 (HEpG2) [µM]
C=C(CBr)C1CC[C@]2(C)C(CCC3C4C(C(C)C)CC[C@]4(C(=O)OC)CC[C@]32C)[C@@]1(C)CCC#N (some centres unmarked) [compound 7, 24-Bromo-2-cyano-3,4-seco-3-norlup-4(23)-en-28-oic acid methyl ester]	> 200	> 200	> 100	> 100	> 100	72.7	> 200	> 100	> 200	> 100	> 100
CC(C)C1CC[C@]2(COC(=O)c3ccccc3)CC[C@]3(C)C(CCC4[C@@](C)(CCC#N)C(C(=O)C(Br)Br)CC[C@]43C)C12 (some centres unmarked) [compound 29, 28-Benzoyloxy-2-cyano-24,24-dibromo-4-oxo-3,4-seco-3,23-dinorlupane]	> 200	> 100	> 100	> 100	> 100	107.7	73.2 ± 5.24	> 100	> 200	49 ± 5.33	> 100
C=C1C=C(C#N)C[C@@]2(C)C1CC[C@]1(C)C2CCC2C3C(C(C)C)CC[C@]3(CO)CC[C@]21C (some centres unmarked) [compound 8, 2-Cyano-28-hydroxy-3,4-seco-3-nor-2,24-cyclolup-2(24),4(23)-diene]	> 200	> 100	> 100	> 100	> 100	196.1	> 200	> 100	> 200	> 100	> 100
COC(=O)[C@]12CCC(C(C)C)C1C1CCC3[C@@]4(C)CC(C#N)=C(C)C4CC[C@@]3(C)[C@]1(C)CC2 (some centres unmarked) [compound 23, 2-Cyano-3,4-seco-3,23-dinor-2,4-cyclolup-2(4)-en-28-oic acid methyl ester]	> 100	> 100	> 100	> 100	> 200	168.5	> 100	> 200	> 100	70.2 ± 3.09	> 200
C=C(CBr)C1CC[C@]2(C)C(CCC3C4C(C(C)C)CC[C@]4(COC(=O)c4ccccc4)CC[C@]32C)[C@@]1(C)CCC#N (some centres unmarked) [compound 6, 28-Benzoyloxy-24-bromo-2-cyano-3,4-seco-3-norlup-4(23)-ene]	> 200	> 100	> 200	> 100	> 100	87.9	> 200	> 100	> 200	> 200	> 100
COC(=O)[C@]12CCC(C(C)C)C1C1CCC3[C@@]4(C)C[C@@H](C#N)CC(=O)C4CC[C@@]3(C)[C@]1(C)CC2 (some centres unmarked) [compound 17, 2-Cyano-4-oxo-3,4-seco-3,23-dinor-2,24-cyclolup-28-oic acid methyl ester]	> 100	> 200	> 100	> 100	> 100	220.8	> 100	> 100	> 200	> 100	> 100
COC(=O)[C@]12CCC(C(C)C)C1C1CCC3[C@@](C)(CCC#N)C(C(C)=O)CC[C@@]3(C)[C@]1(C)CC2 (some centres unmarked) [compound 21, 2-Cyano-4-oxo-3,4-seco-3,23-dinorlupan-28-oic acid methyl ester]	> 100	> 100	> 100	> 100	> 100	177.2	> 100	> 100	> 200	97.5 ± 4.21	> 100
C=C(C=O)C1CC[C@]2(C)C(CCC3C4C(C(C)C)CC[C@]4(C(=O)OC)CC[C@]32C)[C@@]1(C)CCC#N (some centres unmarked) [compound 5, 2-Cyano-3,4-seco-3-norlup-4(23)-en-24-al-28-oic acid methyl ester]	> 200	> 200	> 200	> 100	> 100	97.3	> 100	> 100	> 100	> 200	> 100
CC(=O)C1CC[C@]2(C)C(CCC3C4C(C(C)C)CC[C@]4(COC(=O)c4ccccc4)CC[C@]32C)[C@@]1(C)CCC#N (some centres unmarked) [compound 20, 28-Benzoyloxy-2-cyano-4-oxo-3,4-seco-3,23-dinorlupane]	> 100	> 200	> 100	> 100	> 100	185.8	> 100	> 100	> 200	> 100	> 100
COC(=O)[C@]12CCC(C(C)C)C1C1CCC3[C@@]4(C)CC(C#N)=CC(=O)C4CC[C@@]3(C)[C@]1(C)CC2 (some centres unmarked) [compound 15, 2-Cyano-4-oxo-3,4-seco-3,23-dinor-2,24-cyclolup-2(24)-en-28-oic acid methyl ester]	> 100	> 100	> 100	> 100	> 100	69.7	> 100	> 100	> 100	> 100	> 100
CC(C)C1CC[C@]2(CO)CC[C@]3(C)C(CCC4[C@@]5(C)C[C@@H](C#N)C[C@H](O)C5CC[C@]43C)C12 (stereo partly drawn) [compound 18, 2-Cyano-4β,28-dihydroxy-3,4-seco-3,23-dinor-2,24-cyclolupane]	> 200	> 100	> 100	> 100	> 100	205.7	> 200	> 100	> 200	> 100	> 100
CC(C)C1CC[C@]2(COC(=O)c3ccccc3)CC[C@]3(C)C(CCC4[C@@](C)(CCC#N)C(C(=O)CBr)CC[C@]43C)C12 (some centres unmarked) [compound 28, 28-Benzoyloxy-24-bromo-2-cyano-4-oxo-3,4-seco-3,23-dinorlupane]	> 100	> 100	> 100	> 100	> 100	91.6	> 100	> 100	> 200	86.1 ± 10.1	> 100
C=C1C2CC[C@]3(C)C(CCC4C5C(C(C)C)CC[C@]5(CO)CC[C@]43C)[C@@]2(C)C[C@@H](C#N)[C@@H]1O (stereo partly drawn) [compound 9, 2-Cyano-24β,28-dihydroxy-3,4-seco-3-nor-2,24-cyclolup-4(23)-ene]	> 100	> 200	> 100	> 100	> 100	170.1	> 100	> 100	> 100	> 200	> 100
CC1=C(C#N)C[C@@]2(C)C1CC[C@]1(C)C2CCC2C3C(C(C)C)CC[C@]3(CO)CC[C@]21C (some centres unmarked) [compound 22, 2-Cyano-28-hydroxy-3,4-seco-3,23-dinor-2,4-cyclolup-2(4)-ene]	74.2 ± 2.56	> 100	> 100	> 100	36.5 ± 1.31	184.2	84.7 ± 3.68	> 200	> 100	89.3 ± 3.01	> 100
C=C1C=C(C#N)C[C@@]2(C)C1CC[C@]1(C)C2CCC2C3C(C(C)C)CC[C@]3(C(=O)OC)CC[C@]21C (some centres unmarked) [compound 10, 2-Cyano-3,4-seco-3-nor-2,24-cyclolup-2(24),4(23)-dien-28-oic acid methyl ester]	> 200	> 100	> 200	> 100	> 100	76.6	> 100	> 100	> 200	> 100	> 100
C=C(C=O)C1CC[C@]2(C)C(CCC3C4C(C(C)C)CC[C@]4(COC(=O)c4ccccc4)CC[C@]32C)[C@@]1(C)CCC#N (some centres unmarked) [compound 4, 28-Benzoyloxy-2-cyano-3,4-seco-3-norlup-4(23)-en-24-al]	> 200	> 100	> 100	> 100	> 100	176.5	> 100	> 100	> 100	> 200	> 100
